Experimental data from ChEMBL document CHEMBL4152195, “Lipid reducing activity and toxicity profiles of a library of polyphenol derivatives” (Eur J Med Chem, 2018).
Calls of active or inactive are those of the source. No cut-off for these calls is given here.

Experiments:
Danio rerio [1] = species on record: Danio rerio; experiment: Toxicity in zebra fish larvae at 5 uM after 48 hrs; format: organism-based; conditions: zebrafish, in vivo
3T3-L1 [2] = experiment: Cytotoxicity against mouse 3T3L1 cells at 50 uM after 24 hrs by sulforhodamine B assay; format: cell-based; conditions: 3t3-l1, 24 h
3T3-L1 [3] = experiment: Cytotoxicity against mouse 3T3L1 cells at 50 uM after 48 hrs by sulforhodamine B assay; format: cell-based; conditions: 3t3-l1, 48 h
Danio rerio [4] = species on record: Danio rerio; experiment: Lipid lowering activity in zebrafish embryos at 5 uM by Nile red fat metabolism assay; format: functional, organism-based

With `O=Cc1c(O)ccc2c(=O)c3ccc(O)c(C=O)c3oc12` the Activity (Danio rerio [1]) was 0 to 25%, the Activity (3T3-L1 [2]) was 26 to 50% and the Activity (3T3-L1 [3]) was 51 to 75%.
For `CCCOc1ccc(NCCN(CC)CC)c2c(=O)c3ccccc3sc12.Cl`, the Activity (Danio rerio [1]) was 76 to 100%, the Activity (3T3-L1 [2]) was 76 to 100% and the Activity (3T3-L1 [3]) was 76 to 100%.
In the case of `Cc1c(O)cc2oc3ccccc3c(=O)c2c1O`, the Activity (Danio rerio [1]) is reported as 0 to 25%, the Activity (3T3-L1 [2]) is reported as 26 to 50% and the Activity (3T3-L1 [3]) is reported as 0 to 25%.
In the case of `O=c1c2ccccc2oc2c(O)cccc12`, the Activity (Danio rerio [1]) is reported as 0 to 25%, the Activity (3T3-L1 [2]) is reported as 0 to 25% and the Activity (3T3-L1 [3]) is reported as 0 to 25%.
`COc1cc([C@H]2Oc3ccc4c(=O)c5ccccc5oc4c3O[C@@H]2CO)ccc1O` showed an Activity (Danio rerio [1]) of 0 to 25%, an Activity (3T3-L1 [2]) of 0 to 25% and an Activity (3T3-L1 [3]) of 0 to 25%.
In the case of `COc1c(O)cc2oc3cc(O)c(CC=C(C)C)c(O)c3c(=O)c2c1CC=C(C)C` [MANGOSTIN], the Activity (Danio rerio [1]) is reported as 76 to 100%, the Activity (3T3-L1 [2]) is reported as 76 to 100% and the Activity (3T3-L1 [3]) is reported as 76 to 100%.
With `COc1ccc2c(=O)c3cc(C(=O)N[C@@H](CO)c4ccccc4)ccc3oc2c1` the Activity (Danio rerio [4]) was “Active”, the Activity (Danio rerio [1]) was 0 to 25% and the Activity (3T3-L1 [2]) was 0 to 25%. For the same molecule, the Activity (3T3-L1 [3]) was 0 to 25%.
`COC(=O)c1ccccc1Oc1ccc(OC)c(OC)c1` showed an Activity (Danio rerio [1]) of 0 to 25%, an Activity (3T3-L1 [2]) of 0 to 25% and an Activity (3T3-L1 [3]) of 51 to 75%.
In the case of `COc1ccc(Oc2ccccc2C(=O)O)cc1OC`, the Activity (Danio rerio [1]) is reported as 0 to 25%, the Activity (3T3-L1 [2]) is reported as 0 to 25% and the Activity (3T3-L1 [3]) is reported as 0 to 25%.
With `CC(C)[C@H](CO)NC(=O)COc1ccc2c(=O)c3ccccc3oc2c1` the Activity (Danio rerio [1]) was 0 to 25%, the Activity (3T3-L1 [2]) was 0 to 25% and the Activity (3T3-L1 [3]) was 0 to 25%.
For `O=C(O)Cc1ccc2c(=O)c3ccccc3oc2c1`, the Activity (Danio rerio [4]) was “Active”, the Activity (Danio rerio [1]) was 0 to 25% and the Activity (3T3-L1 [2]) was 0 to 25%. It also gave an Activity (3T3-L1 [3]) of 0 to 25%.
Work on `O=C(O)Cc1ccc2oc3ccccc3c(=O)c2c1` yielded an Activity (Danio rerio [1]) of 0 to 25%, an Activity (3T3-L1 [2]) of 0 to 25% and an Activity (3T3-L1 [3]) of 0 to 25%.
For `O=c1c2ccc(O)cc2oc2cc(O)ccc12`, the Activity (Danio rerio [1]) was 0 to 25%, the Activity (3T3-L1 [2]) was 0 to 25% and the Activity (3T3-L1 [3]) was 0 to 25%.
`CCCOc1ccc(OC)c2c(=O)c3ccccc3sc12` was tested, and the Activity (Danio rerio [4]) was “Active”, the Activity (Danio rerio [1]) was 0 to 25% and the Activity (3T3-L1 [2]) was 0 to 25%. For the same molecule, the Activity (3T3-L1 [3]) was 51 to 75%.
Molecule `COc1ccc2c(=O)c3cc(C(=O)N[C@H](CO)c4ccccc4)ccc3oc2c1` has an Activity (Danio rerio [1]) of 0 to 25%, an Activity (3T3-L1 [2]) of 51 to 75% and an Activity (3T3-L1 [3]) of 26 to 50%.
For `C#CCOc1ccc(/C=C/C(=O)/C=C/c2ccc(OCC#C)c(OC)c2)cc1OC`, the Activity (Danio rerio [4]) was “Active”, the Activity (Danio rerio [1]) was 0 to 25% and the Activity (3T3-L1 [2]) was 26 to 50%. For the same molecule, the Activity (3T3-L1 [3]) was 0 to 25%.
`O=c1c2ccccc2oc2ccccc12` [XANTHONE] showed an Activity (Danio rerio [1]) of 0 to 25%, an Activity (3T3-L1 [2]) of 0 to 25% and an Activity (3T3-L1 [3]) of 0 to 25%.
For `O=C(COc1ccc2c(=O)c3ccccc3oc2c1)N[C@@H](c1ccccc1)[C@H](O)c1ccccc1`, the Activity (Danio rerio [1]) was 0 to 25%, the Activity (3T3-L1 [2]) was 76 to 100% and the Activity (3T3-L1 [3]) was 0 to 25%.
With `COc1cc(/C=C/C(=O)/C=C/c2ccc(O)c(OC)c2)ccc1O` the Activity (Danio rerio [4]) was “Active”, the Activity (Danio rerio [1]) was 0 to 25% and the Activity (3T3-L1 [2]) was 0 to 25%. It also gave an Activity (3T3-L1 [3]) of 0 to 25%.
With `O=c1c2cc(O)c(O)cc2oc2cc(O)c([C@@H]3O[C@H](CO)[C@@H](O)[C@H](O)[C@H]3O)c(O)c12` [MANGIFERIN] the Activity (Danio rerio [1]) was 0 to 25%, the Activity (3T3-L1 [2]) was 0 to 25% and the Activity (3T3-L1 [3]) was 0 to 25%.
With `O=C(COc1ccc2c(=O)c3ccccc3oc2c1)N[C@H](c1ccccc1)[C@@H](O)c1ccccc1` the Activity (Danio rerio [4]) was “Active”, the Activity (Danio rerio [1]) was 0 to 25% and the Activity (3T3-L1 [2]) was 76 to 100%. For the same molecule, the Activity (3T3-L1 [3]) was 0 to 25%.
In the case of `O=c1c2ccccc2sc2c(O)ccc(Cl)c12`, the Activity (Danio rerio [4]) is reported as “Active”, the Activity (Danio rerio [1]) is reported as 0 to 25% and the Activity (3T3-L1 [2]) is reported as 0 to 25%. The Activity (3T3-L1 [3]) was 51 to 75%.
For `O=c1c2ccccc2oc2cc(O)ccc12`, the Activity (Danio rerio [1]) was 0 to 25%, the Activity (3T3-L1 [2]) was 0 to 25% and the Activity (3T3-L1 [3]) was 0 to 25%.
For `COc1c2c(cc3c(=O)c4ccccc4oc13)OC(C)(C)C=C2`, the Activity (Danio rerio [4]) was “Active”, the Activity (Danio rerio [1]) was 0 to 25% and the Activity (3T3-L1 [2]) was 26 to 50%. It also gave an Activity (3T3-L1 [3]) of 51 to 75%.
With `COc1ccc2oc3ccccc3c(=O)c2c1` the Activity (Danio rerio [4]) was “Active”, the Activity (Danio rerio [1]) was 0 to 25% and the Activity (3T3-L1 [2]) was 51 to 75%. For the same molecule, the Activity (3T3-L1 [3]) was 0 to 25%.
For `O=c1c2ccc(O[C@H]3O[C@H](CO)[C@@H](O)[C@@H](O)[C@@H]3O)cc2oc2cc(O[C@@H]3O[C@@H](CO)[C@H](O)C(O)[C@H]3O)ccc12` (stereo not given in full), the Activity (Danio rerio [1]) was 0 to 25%, the Activity (3T3-L1 [2]) was 0 to 25% and the Activity (3T3-L1 [3]) was 26 to 50%.
`COc1c2c(cc3c(=O)c4ccc(O)cc4oc13)CCC(C)(C)O2` was tested, and the Activity (Danio rerio [1]) was 0 to 25%, the Activity (3T3-L1 [2]) was 0 to 25% and the Activity (3T3-L1 [3]) was 0 to 25%.
With `O=c1c2ccccc2oc2cccc(OCCCCCBr)c12` the Activity (Danio rerio [4]) was “Active”, the Activity (Danio rerio [1]) was 0 to 25% and the Activity (3T3-L1 [2]) was 0 to 25%. For the same molecule, the Activity (3T3-L1 [3]) was 26 to 50%.
In the case of `O=c1c2ccccc2oc2c(O)c(O)ccc12` [3,4-DIHYDROXYXANTHONE], the Activity (Danio rerio [4]) is reported as “Active”, the Activity (Danio rerio [1]) is reported as 0 to 25% and the Activity (3T3-L1 [2]) is reported as 26 to 50%. The Activity (3T3-L1 [3]) was 51 to 75%.
In the case of `COc1cc2c(c3oc4ccccc4c(=O)c13)OC(C)(C)C=C2`, the Activity (Danio rerio [4]) is reported as “Active”, the Activity (Danio rerio [1]) is reported as 76 to 100% and the Activity (3T3-L1 [2]) is reported as 51 to 75%. It also gave an Activity (3T3-L1 [3]) of 51 to 75%.
`O=c1c2ccccc2oc2cccc(OCCCCCCOc3cccc4oc5ccccc5c(=O)c34)c12` gave an Activity (Danio rerio [1]) of 0 to 25%, an Activity (3T3-L1 [2]) of 0 to 25% and an Activity (3T3-L1 [3]) of 51 to 75%.
`CC(=O)Oc1ccc(C(=O)c2ccc(OC(C)=O)c(OC(C)=O)c2)cc1OC(C)=O` showed an Activity (Danio rerio [1]) of 0 to 25%, an Activity (3T3-L1 [2]) of 26 to 50% and an Activity (3T3-L1 [3]) of 51 to 75%.
In the case of `COc1cc(C=O)c2c(=O)c3ccccc3oc2c1OC`, the Activity (Danio rerio [4]) is reported as “Active”, the Activity (Danio rerio [1]) is reported as 0 to 25% and the Activity (3T3-L1 [2]) is reported as 0 to 25%. For the same molecule, the Activity (3T3-L1 [3]) was 51 to 75%.
`CCCOc1ccc(N2CCCCC2)c2c(=O)c3ccccc3sc12` was tested, and the Activity (Danio rerio [1]) was 76 to 100%, the Activity (3T3-L1 [2]) was 26 to 50% and the Activity (3T3-L1 [3]) was 51 to 75%.
Molecule `C#CCOc1ccc2c(=O)c3ccc(OCC#C)cc3oc2c1` has an Activity (Danio rerio [1]) of 0 to 25%, an Activity (3T3-L1 [2]) of 0 to 25% and an Activity (3T3-L1 [3]) of 0 to 25%.
For `COc1ccccc1C(=O)c1ccc(OC)c(OC)c1O`, the Activity (Danio rerio [1]) was 0 to 25%, the Activity (3T3-L1 [2]) was 0 to 25% and the Activity (3T3-L1 [3]) was 51 to 75%.
`C=Cc1cc2c(=O)c3ccccc3oc2c(OC)c1O` was tested, and the Activity (Danio rerio [4]) was “Active”, the Activity (Danio rerio [1]) was 0 to 25% and the Activity (3T3-L1 [2]) was 0 to 25%. The Activity (3T3-L1 [3]) was 51 to 75%.
For `CCCOc1ccc(NCCN(CC)CC)c2c(=O)c3ccccc3sc12`, the Activity (Danio rerio [1]) was 76 to 100%, the Activity (3T3-L1 [2]) was 0 to 100% and the Activity (3T3-L1 [3]) was 51 to 100%.
For `COc1cc(/C=C/C(=O)/C=C/c2ccc(OCc3cn(CCO[C@H]4O[C@@H](COC(C)=O)[C@H](OC(C)=O)[C@@H](OC(C)=O)[C@@H]4NC(C)=O)nn3)c(OC)c2)ccc1OCc1cn(CCO[C@@H]2O[C@H](COC(C)=O)[C@@H](OC(C)=O)[C@H](OC(C)=O)[C@@H]2NC(C)=O)nn1`, the Activity (Danio rerio [1]) was 0 to 25%, the Activity (3T3-L1 [2]) was 0 to 25% and the Activity (3T3-L1 [3]) was 0 to 25%.
In the case of `COc1c(O)ccc2c(=O)c3ccccc3oc12`, the Activity (Danio rerio [1]) is reported as 0 to 25%, the Activity (3T3-L1 [2]) is reported as 0 to 25% and the Activity (3T3-L1 [3]) is reported as 0 to 25%.
Molecule `O=Cc1cc(O)c(O)c2oc3ccccc3c(=O)c12` has an Activity (Danio rerio [1]) of 0 to 25%, an Activity (3T3-L1 [2]) of 0 to 25% and an Activity (3T3-L1 [3]) of 51 to 75%.
`CCCOc1ccc(NNC(=O)c2ccncc2)c2c(=O)c3ccccc3sc12` gave an Activity (Danio rerio [1]) of 51 to 75%, an Activity (3T3-L1 [2]) of 0 to 25% and an Activity (3T3-L1 [3]) of 51 to 75%.
`COc1cccc2c(=O)c3cc4c(c(O)c3oc12)OC(C)(C)CC4` was tested, and the Activity (Danio rerio [1]) was 0 to 25%, the Activity (3T3-L1 [2]) was 51 to 75% and the Activity (3T3-L1 [3]) was 51 to 75%.
`CC(C)=CCOc1ccc2oc3ccccc3c(=O)c2c1OCC=C(C)C` showed an Activity (Danio rerio [1]) of 0 to 25%, an Activity (3T3-L1 [2]) of 26 to 50% and an Activity (3T3-L1 [3]) of 51 to 75%.
For `CC(C)[C@@H](CO)NC(=O)COc1ccc2c(=O)c3ccccc3oc2c1`, the Activity (Danio rerio [1]) was 0 to 25%, the Activity (3T3-L1 [2]) was 0 to 25% and the Activity (3T3-L1 [3]) was 0 to 25%.
With `O=C(O)Cc1cccc2oc3ccccc3c(=O)c12` the Activity (Danio rerio [1]) was 0 to 25%, the Activity (3T3-L1 [2]) was 0 to 25% and the Activity (3T3-L1 [3]) was 26 to 50%.
`COc1cc2oc3c(OC)c4c(cc3c(=O)c2cc1OC)OC(C)(C)CC4` was tested, and the Activity (Danio rerio [1]) was 0 to 25%, the Activity (3T3-L1 [2]) was 0 to 25% and the Activity (3T3-L1 [3]) was 0 to 25%.
